Data from patent US20090270394A1, “CYCLYLAMINE DERIVATIVES AS CALCIUM CHANNEL BLOCKERS” (priority 2008, published 2009).

Assays:
T-type calcium channels = details: cited from earlier work
Human Cav2.2 channels = target: T1, Human Cav2.2 channels (Homo sapiens, UniProt Q00975); assay: Fluorescent assay for Cav2.2 channels using potassium depolarization to initiate channel opening; format: cell-based; details: for inhibition at 10 µM: 10 μM compound, read-out: Cav 2.2 Activity % Inh at 10 μM; for inhibition at 30 µM: 30 μM compound, read-out: Cav 2.2 Activity % Inh at 30 μM; for IC50: 30 mM K (block of open and inactivated channels), read-out: Cav 2.2 Activity IC50 at 30 mM K
T1 construct: expressed in transfected cells
T1 sequence (Q00975 whole entry): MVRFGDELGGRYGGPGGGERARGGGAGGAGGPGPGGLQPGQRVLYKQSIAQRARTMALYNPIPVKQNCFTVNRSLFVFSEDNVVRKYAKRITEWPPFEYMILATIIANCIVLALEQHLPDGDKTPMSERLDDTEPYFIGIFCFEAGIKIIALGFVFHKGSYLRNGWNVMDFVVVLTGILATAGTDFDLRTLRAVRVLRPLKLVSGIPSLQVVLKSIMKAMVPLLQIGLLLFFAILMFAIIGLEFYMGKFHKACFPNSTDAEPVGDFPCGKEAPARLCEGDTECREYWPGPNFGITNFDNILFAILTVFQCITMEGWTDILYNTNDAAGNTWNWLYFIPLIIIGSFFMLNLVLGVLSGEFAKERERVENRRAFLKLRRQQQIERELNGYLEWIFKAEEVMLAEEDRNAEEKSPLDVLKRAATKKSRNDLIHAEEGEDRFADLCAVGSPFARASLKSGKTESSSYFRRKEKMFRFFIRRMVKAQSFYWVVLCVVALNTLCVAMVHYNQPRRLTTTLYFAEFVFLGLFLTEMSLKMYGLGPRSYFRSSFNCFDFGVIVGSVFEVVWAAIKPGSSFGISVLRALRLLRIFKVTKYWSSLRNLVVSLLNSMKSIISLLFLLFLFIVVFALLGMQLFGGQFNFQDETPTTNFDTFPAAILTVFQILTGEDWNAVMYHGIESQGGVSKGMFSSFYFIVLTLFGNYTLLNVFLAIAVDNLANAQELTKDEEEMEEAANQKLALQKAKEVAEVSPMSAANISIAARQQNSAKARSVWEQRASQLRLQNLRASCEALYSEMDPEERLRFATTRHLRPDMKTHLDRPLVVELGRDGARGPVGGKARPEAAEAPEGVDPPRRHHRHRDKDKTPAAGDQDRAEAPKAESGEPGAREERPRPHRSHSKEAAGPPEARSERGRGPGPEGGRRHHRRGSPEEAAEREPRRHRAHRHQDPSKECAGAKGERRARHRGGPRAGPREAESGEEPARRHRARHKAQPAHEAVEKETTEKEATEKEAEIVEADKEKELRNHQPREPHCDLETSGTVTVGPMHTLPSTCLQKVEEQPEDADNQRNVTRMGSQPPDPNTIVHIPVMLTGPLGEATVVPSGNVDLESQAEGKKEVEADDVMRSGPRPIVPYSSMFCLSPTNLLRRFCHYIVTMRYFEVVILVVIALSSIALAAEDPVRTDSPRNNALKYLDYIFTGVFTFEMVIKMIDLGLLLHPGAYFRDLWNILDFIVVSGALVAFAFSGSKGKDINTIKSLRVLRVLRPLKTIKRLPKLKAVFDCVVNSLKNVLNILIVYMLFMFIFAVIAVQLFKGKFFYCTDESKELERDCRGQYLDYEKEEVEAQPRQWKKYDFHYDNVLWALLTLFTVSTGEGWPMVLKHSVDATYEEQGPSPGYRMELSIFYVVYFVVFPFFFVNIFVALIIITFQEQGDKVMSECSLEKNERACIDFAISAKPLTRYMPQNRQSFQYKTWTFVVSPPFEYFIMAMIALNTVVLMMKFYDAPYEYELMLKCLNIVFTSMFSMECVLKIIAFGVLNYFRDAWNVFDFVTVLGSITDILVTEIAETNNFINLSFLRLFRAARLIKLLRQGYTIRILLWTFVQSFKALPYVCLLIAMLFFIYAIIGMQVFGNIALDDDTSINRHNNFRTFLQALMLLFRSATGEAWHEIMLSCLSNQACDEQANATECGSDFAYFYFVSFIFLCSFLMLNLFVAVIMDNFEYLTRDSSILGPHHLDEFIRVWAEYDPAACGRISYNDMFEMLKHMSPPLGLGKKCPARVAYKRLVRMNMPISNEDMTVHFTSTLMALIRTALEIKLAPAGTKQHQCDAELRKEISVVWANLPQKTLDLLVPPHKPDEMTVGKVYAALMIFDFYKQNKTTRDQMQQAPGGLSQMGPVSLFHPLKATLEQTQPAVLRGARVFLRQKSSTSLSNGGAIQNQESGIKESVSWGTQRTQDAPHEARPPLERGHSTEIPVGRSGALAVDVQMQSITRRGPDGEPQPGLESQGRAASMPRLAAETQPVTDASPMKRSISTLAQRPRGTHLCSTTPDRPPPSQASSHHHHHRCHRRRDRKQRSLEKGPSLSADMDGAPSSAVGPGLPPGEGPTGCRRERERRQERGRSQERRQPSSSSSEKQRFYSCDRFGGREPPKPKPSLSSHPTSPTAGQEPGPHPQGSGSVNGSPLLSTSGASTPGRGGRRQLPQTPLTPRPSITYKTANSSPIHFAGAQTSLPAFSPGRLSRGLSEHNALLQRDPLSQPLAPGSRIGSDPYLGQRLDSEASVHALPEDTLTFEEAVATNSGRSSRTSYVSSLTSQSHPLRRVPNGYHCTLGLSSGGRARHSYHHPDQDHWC
T1 sequence (P54289 25-1103 partner): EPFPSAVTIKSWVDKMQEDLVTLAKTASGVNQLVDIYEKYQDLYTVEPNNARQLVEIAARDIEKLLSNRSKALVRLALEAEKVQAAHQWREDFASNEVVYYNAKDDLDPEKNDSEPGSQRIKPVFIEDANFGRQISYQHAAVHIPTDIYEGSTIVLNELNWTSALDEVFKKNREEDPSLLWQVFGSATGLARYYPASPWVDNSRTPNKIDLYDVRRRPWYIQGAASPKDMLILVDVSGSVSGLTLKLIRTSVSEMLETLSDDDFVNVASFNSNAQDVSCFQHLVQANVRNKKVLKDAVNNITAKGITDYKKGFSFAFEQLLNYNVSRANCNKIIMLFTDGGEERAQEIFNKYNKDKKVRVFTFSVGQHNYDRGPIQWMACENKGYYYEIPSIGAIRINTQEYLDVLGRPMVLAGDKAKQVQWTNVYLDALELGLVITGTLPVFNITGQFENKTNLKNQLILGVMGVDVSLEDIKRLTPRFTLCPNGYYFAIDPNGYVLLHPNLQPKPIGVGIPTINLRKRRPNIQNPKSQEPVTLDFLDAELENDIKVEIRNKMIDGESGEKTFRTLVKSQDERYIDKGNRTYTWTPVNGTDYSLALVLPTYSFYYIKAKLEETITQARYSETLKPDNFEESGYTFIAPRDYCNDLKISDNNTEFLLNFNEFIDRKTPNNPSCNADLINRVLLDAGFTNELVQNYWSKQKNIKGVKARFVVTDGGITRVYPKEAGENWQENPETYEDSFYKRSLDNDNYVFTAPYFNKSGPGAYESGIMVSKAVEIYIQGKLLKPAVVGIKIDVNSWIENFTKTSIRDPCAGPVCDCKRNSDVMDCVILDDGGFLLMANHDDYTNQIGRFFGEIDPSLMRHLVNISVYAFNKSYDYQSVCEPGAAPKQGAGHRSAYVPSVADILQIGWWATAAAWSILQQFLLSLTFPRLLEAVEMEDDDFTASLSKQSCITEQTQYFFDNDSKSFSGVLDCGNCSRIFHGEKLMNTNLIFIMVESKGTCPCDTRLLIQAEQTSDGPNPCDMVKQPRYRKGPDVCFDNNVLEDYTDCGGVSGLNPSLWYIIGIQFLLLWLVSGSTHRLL
T1 sequence (P54284 whole entry partner): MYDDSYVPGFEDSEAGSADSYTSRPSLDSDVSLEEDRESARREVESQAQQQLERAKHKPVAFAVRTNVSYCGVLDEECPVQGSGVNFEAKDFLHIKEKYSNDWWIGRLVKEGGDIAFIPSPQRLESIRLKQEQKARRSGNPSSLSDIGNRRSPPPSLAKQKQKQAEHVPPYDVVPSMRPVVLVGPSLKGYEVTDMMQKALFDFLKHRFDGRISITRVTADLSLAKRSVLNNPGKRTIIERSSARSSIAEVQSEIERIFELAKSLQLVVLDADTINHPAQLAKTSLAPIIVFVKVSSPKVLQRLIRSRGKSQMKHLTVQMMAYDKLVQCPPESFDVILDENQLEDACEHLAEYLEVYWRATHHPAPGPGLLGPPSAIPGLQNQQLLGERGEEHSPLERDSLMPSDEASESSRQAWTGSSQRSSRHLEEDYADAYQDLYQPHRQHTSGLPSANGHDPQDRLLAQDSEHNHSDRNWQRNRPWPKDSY
In short: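 HEK293 cells stably expressing human Cav2.2 with alpha2-delta and beta subunits plus Kir2.3, dye-loaded, then held 30 min at 25° C. in 4, 12, 25 or 30 mM K+ pre-polarization buffer with compound.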

SMILES | fold selective for T-type over L-type channels (T-type calcium channels) | inhibition at 10 µM (Human Cav2.2 channels) [%] | inhibition at 30 µM (Human Cav2.2 channels) [%] | IC50 (Human Cav2.2 channels) [µM]
COCC(=O)O[C@]1(CCN(C)CCCc2nc3ccccc3[nH]2)CCc2cc(F)ccc2[C@@H]1C(C)C [Mibefradil] | 10-30 fold | – | – | –
CN(C)c1ccc(CNC(=O)C2(NC(=O)c3cc(C(C)(C)C)nc(C(C)(C)C)c3)CCCCC2)cc1 [Compound 77, 2,6-di-tert-butyl-N-(1-(4-(dimethylamino)benzylcarbamoyl)cyclohexyl)isonicotinamide] | – | 48.7 | 66.9 | 0.574
COc1c(C(C)(C)C)cc(CC(=O)NC2(C(=O)NCc3cccc(C(F)(F)F)c3)CCCCC2)cc1C(C)(C)C [Compound 15, 1-(2-(3,5-di-tert-butyl-4-methoxyphenyl)acetamido)-N-(3-(trifluoromethyl)benzyl)cyclohexanecarboxamide] | – | 48.2 | 65.9 | –
CC(C)(C)c1cc(C(=O)NC2(C(=O)NCc3ccc(S(C)(=O)=O)cc3)CCCCC2)cc(C(C)(C)C)c1O [Compound 112, 3,5-di-tert-butyl-4-hydroxy-N-(1-(4-(methylsulfonyl)benzylcarbamoyl)cyclohexyl)benzamide] | – | 96.7 | 102 | 0.138
COc1c(C(C)(C)C)cc(C(=O)NC2(C(=O)N3CCN(Cc4ccccc4)CC3)CCCCC2)cc1C(C)(C)C [Compound 83, N-(1-(4-benzylpiperazine-1-carbonyl)cyclohexyl)-3,5-di-tert-butyl-4-methoxybenzamide] | – | 97.2 | 100 | 0.134
CC(C)(C)c1cc(C(=O)NC2(C(=O)Nc3ccccc3)CCCCC2)cc(C(C)(C)C)c1O [Compound 111, 3,5-di-tert-butyl-4-hydroxy-N-(1-(phenylcarbamoyl)cyclohexyl)benzamide] | – | 71.8 | 106 | 0.551
CC(C)(C)c1cc(C(=O)NC2(C(=O)NCc3ccc(S(C)(=O)=O)cc3)CCCCC2)cc(C(C)(C)C)c1 [Compound 107, 3,5-di-tert-butyl-N-(1-(4-(methylsulfonyl)benzylcarbamoyl)cyclohexyl)benzamide] | – | – | – | 0.143
Cc1cc(CNC(=O)C2(NC(=O)c3cc(C(C)(C)C)cc(C(C)(C)C)c3)CCCCC2)nn1C [Compound 68, 3,5-di-tert-butyl-N-(1-((1,5-dimethyl-1H-pyrazol-3-yl)methylcarbamoyl)cyclohexyl)benzamide] | – | 98.4 | 94 | 0.0649
COc1c(C(C)(C)C)cc(C(=O)NC2(C(=O)NCc3ccc(N(C)C)cc3)CCCCC2)cc1C(C)(C)C [Compound 84, 3,5-di-tert-butyl-N-(1-(4-(dimethylamino)benzylcarbamoyl)cyclohexyl)-4-methoxybenzamide] | – | 25.6 | 53.5 | –
CC(C)(C)c1cc(C(=O)NC2(C(=O)N3CCCC3)CCCCC2)cc(C(C)(C)C)n1 [Compound 66, 2,6-di-tert-butyl-N-(1-(pyrrolidine-1-carbonyl)cyclohexyl)isonicotinamide] | – | – | – | 0.96
CN1CCN(Cc2ccc(CNC(=O)C3(NC(=O)c4cc(C(C)(C)C)nc(C(C)(C)C)c4)CCOCC3)cc2)CC1 [Compound 27, 2,6-di-tert-butyl-N-(4-(4-((4-methylpiperazin-1-yl)methyl)benzylcarbamoyl)tetrahydro-2H-pyran-4-yl)isonicotinamide] | – | 102 | – | 1.04
CC(C)(C)c1cc(C(=O)NC2(C(=O)NCc3ccc(Cl)cc3)CCCCC2)cc(C(C)(C)C)c1 [Compound 46, 3,5-di-tert-butyl-N-(1-(4-chlorobenzylcarbamoyl)cyclohexyl)benzamide] | – | 96.6 | 97.9 | 0.0779
Cc1cc(CNC(=O)C2(NC(=O)c3cc(C(C)(C)C)nc(C(C)(C)C)c3)CCCCC2)nn1C [Compound 78, 2,6-di-tert-butyl-N-(1-((1,5-dimethyl-1H-pyrazol-3-yl)methylcarbamoyl)cyclohexyl)isonicotinamide] | – | 79.5 | 88.6 | 0.0245
COc1ccc(CNC(=O)C2(NC(=O)c3cc(C(C)(C)C)cc(C(C)(C)C)c3)CCCCC2)cc1 [Compound 45, 3,5-di-tert-butyl-N-(1-(4-methoxybenzylcarbamoyl)cyclohexyl)benzamide] | – | 95.7 | 99.5 | 0.0252
CC(C)(C)NC(=O)C(C)(C)c1cc(C(=O)NC2(C(=O)NCc3cccc(C(F)(F)F)c3)CCCCC2)cc(C(C)(C)C(=O)NC(C)(C)C)c1 [Compound 76, 2,2′-(5-(1-(3-(trifluoromethyl)benzylcarbamoyl)cyclohexylcarbamoyl)-1,3-phenylene)bis(N-tert-butyl-2-methylpropanamide)] | – | 80.5 | 87.8 | –
CC(C)(C#N)c1cccc(C(=O)NC2(C(=O)NCc3cccc(C(F)(F)F)c3)CCCCC2)c1 [Compound 124, 3-(2-cyanopropan-2-yl)-N-(1-(3-(trifluoromethyl)benzylcarbamoyl)cyclohexyl)benzamide] | – | 84.2 | 74 | 0.81
CC(C)(C)c1cc(C(=O)NC2(C(=O)NCc3ccccc3)CCCCC2)cc(C(C)(C)C)n1 [Compound 56, N-(1-(benzylcarbamoyl)cyclohexyl)-2,6-di-tert-butylisonicotinamide] | – | 84.4 | 92.6 | 0.321
CC(C)(C)c1cc(C(=O)NC2(C(=O)NCc3ccccc3)Cc3ccccc3C2)cc(C(C)(C)C)n1 [Compound 52, N-(2-(benzylcarbamoyl)-2,3-dihydro-1H-inden-2-yl)-2,6-di-tert-butylisonicotinamide] | – | 82.2 | 91.3 | 0.893
CC(C)(C)c1cc(C(=O)NC2(C(=O)NCc3cccc(C(F)(F)F)c3)Cc3ccccc3C2)cc(C(C)(C)C)n1 [Compound 54, 2,6-di-tert-butyl-N-(2-(3-(trifluoromethyl)benzylcarbamoyl)-2,3-dihydro-1H-inden-2-yl)isonicotinamide] | – | 46.2 | 68.4 | –
CC(C)(C#N)c1cccc(C(=O)NC2(C(=O)NCc3ccccc3)CCCCC2)c1 [Compound 123, N-(1-(benzylcarbamoyl)cyclohexyl)-3-(2-cyanopropan-2-yl)benzamide] | – | 53.5 | 27.3 | –
COc1c(C(C)(C)C)cc(C(=O)NC2(C(=O)Nc3ccccc3)CCCCC2)cc1C(C)(C)C [Compound 96, 3,5-di-tert-butyl-4-methoxy-N-(1-(phenylcarbamoyl)cyclohexyl)benzamide] | – | 77.7 | 82.6 | 0.161
CC(C)(C)c1cc(C(=O)NC2(C(=O)N3CCN(Cc4ccccc4)CC3)CCCCC2)cc(C(C)(C)C)n1 [Compound 69, N-(1-(4-benzylpiperazine-1-carbonyl)cyclohexyl)-2,6-di-tert-butylisonicotinamide] | – | 88.3 | 95.3 | 0.538
CC(C)(C)c1cc(C(=O)NC2(C(=O)NCc3cccc(C(F)(F)F)c3)CCCCC2)cc(C(C)(C)C)c1 [Compound 62, 3,5-di-tert-butyl-N-(1-(3-(trifluoromethyl)benzylcarbamoyl)cyclohexyl)benzamide] | – | 94.3 | 88.1 | 0.0991
CC(C)(C)c1cc(NC(=O)C2(NCc3ccc(F)cc3F)CCCCC2)cc(C(C)(C)C)c1 [Compound 42, N-(3,5-di-tert-butylphenyl)-1-(2,4-difluorobenzylamino)cyclohexanecarboxamide] | – | 70.6 | 80.2 | –
Cc1cc(CNC(=O)C2(NC(=O)c3cc(C(C)(C)C)nc(C(C)(C)C)c3)CCCCC2)no1 [Compound 79, 2,6-di-tert-butyl-N-(1-((5-methylisoxazol-3-yl)methylcarbamoyl)cyclohexyl)isonicotinamide] | – | 97.8 | 101 | 0.0433
CC(C)(C)OC(=O)N1CCC(NC(=O)c2cc(C(C)(C)C)nc(C(C)(C)C)c2)(C(=O)O)CC1 [Compound 58, 1-(tert-butoxycarbonyl)-4-(2,6-di-tert-butylisonicotinamido)piperidine-4-carboxylic acid] | – | 37.6 | 77.9 | –
CC(C)(C)c1cc(C(=O)NC2(C(=O)NCc3cccnc3)CCCCC2)cc(C(C)(C)C)c1 [Compound 103, 3,5-di-tert-butyl-N-(1-(pyridin-3-ylmethylcarbamoyl)cyclohexyl)benzamide] | – | – | – | 0.0653
Cc1cnc(CNC(=O)C2(NC(=O)c3cc(C(C)(C)C)nc(C(C)(C)C)c3)CC2)cn1 [Compound 11, 2,6-di-tert-butyl-N-(1-((5-methylpyrazin-2-yl)methylcarbamoyl)cyclopropyl)isonicotinamide] | – | 91.9 | 92.2 | 0.336
